Where two headings read alike, the source gives them in different places.
How the values were obtained:
[1] = tested on: hemocyte PLA2 of S. exigua; assay: Nonspecific (total) hemocyte PLA2 activity, pyrene-labeled phospholipid fluorometric assay; assay type: biochemical, Spodoptera exigua; conditions: for Median Inhibitory Concentrations (IC50), Total PLA2: hemocyte extract of S. exigua L5 larvae, synthetic compounds
Description: Hemocyte PLA2 activity was fluorometrically determined with a pyrene-labeled phospholipid substrate using a spectrofluorometer (VICTOR multi-label plate reader, PerkinElmer, Waltham, MA, USA) at excitation and emission wavelengths of 345 and 398 nm, respectively. For measuring PLA2 activity, hemolymph was collected from ~10 L5 larvae. Hemocytes and plasma were separated by centrifugation at 800× g for 3 min at 4 °C. Hemocytes were then homogenized in 500 µL of PBS with a polytron (Ultra-Turrax T8, Ika Laboratory, Funkentshort, Germany). After centrifugation at 14,000× g for 5 min at 4 °C, protein concentration of the supernatant was determined by Bradford assay using bovine serum albumin (BSA) as the standard. The reaction mixture was prepared in a 96-well microplate by adding 129 μL of 50 mM Tris buffer (pH 7.0), 2 μL of 1 M CaCl2, and 2 μL of 10% BSA into each well. A sample solution consisted of 5 μL of test bacterial metabolites and 10 μL of hemocyte enzyme extract ([…]). The plate was then incubated at room temperature for 30 min. Enzyme reaction was then initiated by adding pyrene-labeled PL substrate (2 μL) to the reaction mixture.

[2] = tested on: secretory PLA2 (sPLA2); assay: Secretory PLA2 (sPLA2) activity; assay type: biochemical, Spodoptera exigua; conditions: for Median Inhibitory Concentrations (IC50), sPLA2: S. exigua, synthetic compounds
Description: (§1) To characterize PLA2 inhibition by test chemicals, activities of two different PLA2s [secretory PLA2 (sPLA2) and cytosolic PLA2 (cPLA2)] were assessed with methods described by Vatanparast et al..

[3] = tested on: cytosolic PLA2 (cPLA2); assay: Cytosolic PLA2 (cPLA2) activity; assay type: biochemical, Spodoptera exigua; conditions: for Median Inhibitory Concentrations (IC50), cPLA2: S. exigua, synthetic compounds; for Potency for inhibiting cPLA2 (in words): based on IC50 values
Description: as §1

[4] = tested on: hemocyte phagocytosis of S. exigua; assay: Phagocytosis assay with FITC-labeled E. coli in L5 larvae; assay type: in vivo, Spodoptera exigua; conditions: for Median Inhibitory Concentration (IC50), Phagocytosis: injected into L5 larvae with FITC-labeled E. coli
Description: For in vivo phagocytosis assay, test chemical (1 µL) and FITC-labeled E. coli (5 µL, 5 × 10^4 cells/µL) were injected to L5 larva. Hemolymph (50 µL) was collected at 15 min after injection and mixed with 50 µL of ice cold ACB. After centrifugation at 700 × g for 3 min at 4 °C, the supernatant plasma was replaced with 100 µL of TC-100 insect cell culture medium (Welgene, Daegu, Korea). Hemocyte suspension (10 µL) was placed onto a slide and over laid with 10 µL glycerol (50%, v/v). Hemocytes undergoing phagocytosis were determined by fluorescence-emitting cells under a fluorescence microscope (Leica, Wetzlar, Germany) at 40× magnification. For in vitro phagocytosis, hemocyte suspension and labeled bacteria mixture (30 µL) were incubated in a dark place for 1 h at room temperature. Hemocytes were then washed three times with PBS by centrifugation at 700× g for 2 min at 4 °C and finally resuspended in TC-100 medium. This hemocyte suspension was observed under the fluorescence microscope in FITC or DIC mode after forming monolayers on glass slides.

[5] = tested on: hemocyte nodule formation; assay: Nodulation assay after E. coli injection in L5 larvae; assay type: in vivo, Spodoptera exigua; conditions: for Median Inhibitory Concentration (IC50), Nodulation: injected into L5 larvae with E. coli, nodules counted after 8 h
Description: To assess nodule formation, immune challenge was performed by injecting 3 µL of Escherichia coli Top10 (10^4 cells/larva) (Invitrogen, Madison, WI, USA) through the abdominal proleg of L5 larvae using a microsyringe (Hamilton, Reno, NV, USA). After incubating at 25 °C for 8 h, test insects were dissected to count the number of melanized nodules under a stereo microscope (Stemi SV11, Zeiss, Jena, Germany) at 50× magnification. For chemical test, 1 µL aliquot of test chemical at different concentrations was injected into each larva along with E. coli. AA was injected at 10 μg per larva. Each treatment was independently replicated five times.

[6] = tested on: Sf9 cells; assay: Cytotoxicity test (MTT); assay type: cell-based; conditions: for Cytotoxicity (MIC, minimum inhibitory concentration): MTT, 24 h at 28 °C
Description: Cytotoxicity of each secondary metabolite was evaluated by 3-(4,5 dimethylthiazol-2-yl)-2,5-diphenyl tetrazolium bromide (MTT) assay according to the method described by Mollah et al.. with a slight modification. Briefly, Sf9 cells (1.2 × 10^4 cells in 200 μL of TC-100 medium) were seeded into each 96-well. After adding each test chemical (2.5 μL in DMSO), the plate was incubated at 28 °C for 24 h. Control cells were treated with 2.5 μL of DMSO. After 24 h incubation, 10 μL of MTT (5 mg/mL in PBS) was added to each well and cells were cultured for another 4 h at 28 °C. Formazan granules formed in viable cells were dissolved in 50 μL of DMSO. Absorbance was then measured at 540 nm using a microplate reader (Victor Multilabel Plate Reader, PerkinElmer, Waltham, MA, USA).

[7] = tested on: S. exigua larvae; assay: Insecticidal activity by injection; assay type: in vivo, Spodoptera exigua; conditions: for Insecticidal Activities, Injection: median lethal dose by Probit analysis, S. exigua larvae
Description: All data for continuous variables were subjected to one-way analysis of variance (ANOVA) using PROG GLM in SAS program. Mortality data were subjected to arcsine transformation and used for ANOVA. Means were compared with the least significant difference (LSD) test at Type I error of 0.05. Median toxicity values such as median lethal dose (LD50), median lethal concentration (LC50), median lethal time (LT50), and median inhibition concentrations (IC50) were calculated by Probit analysis using EPA Probit Analysis Program, ver. 1.5 (U.S. Environmental Protection Agency, Washington, DC, USA). […]

[8] = tested on: S. exigua larvae; assay: Feeding toxicity, leaf-dipping method; assay type: in vivo, Spodoptera exigua; conditions: for Insecticidal Activities, Feeding: median lethal concentration by Probit analysis, leaf-dipping
Description: (§2) For the virulence test of X. hominickii, 24 h-cultured cells (10^8 cfu/mL) were diluted with sterile PBS. After surface sterilization with 95% ethanol, each L5 larva was injected with 1 µL of test compound (1 µg/larva) along with bacterial suspension (10^2 cfu/larva). Injection was performed through the first abdominal proleg using a micro syringe. Injected larvae were incubated at room temperature individually in 9 cm Petri dishes. For oral toxicity assay of B. thuringiensis, a small piece (2 × 2 cm) of Chinese cabbage was dipped in 500 ppm of Bt or a mixture of Bt (500 ppm) with 500 ppm of test chemical for 5 min. After a brief (5 min) drying under a dark condition, the treated leaf was supplied to individual test larva in 9 cm Petri dish for 24 h at room temperature. After 24 h, larvae were fed with fresh cabbage leaves. Each treatment was replicated three times with 10 larvae per replication. […] Larvae were considered dead if they were unable to move in a coordinated manner when prodded with a blunt probe.
All data for continuous variables were subjected to one-way analysis of variance (ANOVA) using PROG GLM in SAS program. Mortality data were subjected to arcsine transformation and used for ANOVA. Means were compared with the least significant difference (LSD) test at Type I error of 0.05. Median toxicity values such as median lethal dose (LD50), median lethal concentration (LC50), median lethal time (LT50), and median inhibition concentrations (IC50) were calculated by Probit analysis using EPA Probit Analysis Program, ver. 1.5 (U.S. Environmental Protection Agency, Washington, DC, USA).
These compounds were also tested for their feeding toxicities using a leaf-dipping method.

[9] = tested on: S. exigua larvae; assay: Effect on pathogenicity of X. hominickii (co-injection); assay type: in vivo, Spodoptera exigua; conditions: L5 larvae injected with Xh 10^2 cfu/larva along with inhibitor (5 µg/larva Fig. 7A; 2 µg/larva Fig. S6); 4 days after treatment
Description: as §2, with “After surface sterilization with 95% ethanol, each L5 larva was injected with 1 µL of test compound (1 µg/larva) along with bacterial suspension (10^2 cfu/larva).” left out

[10] = tested on: S. exigua larvae; assay: Effect on pathogenicity of Bacillus thuringiensis (oral, leaf dipping); assay type: in vivo, Spodoptera exigua; conditions: cabbage leaf dipped in Bt 500 ppm mixed with inhibitor 500 ppm; 4 days after treatment
Description: as §2

[11] = tested on: mammals; conditions: cited from earlier work
[12] = molecular target: mushroom tyrosinase; design: method as in PMID 14714727; conditions: cited from earlier work
[13] = tested on: rats; conditions: cited from earlier work
[14] = tested on: rabbits; conditions: cited from earlier work
[15] = reference not printed with the value, next sentence cites ref 48

SMILES | Median Inhibitory Concentrations (IC50), Total PLA2 [1] | Median Inhibitory Concentrations (IC50), sPLA2 [2] | Median Inhibitory Concentrations (IC50), cPLA2 [3] | Potency for inhibiting cPLA2 (in words) [3] | Median Inhibitory Concentration (IC50), Phagocytosis [4] | Median Inhibitory Concentration (IC50), Nodulation [5] | Cytotoxicity (MIC, minimum inhibitory concentration) [6] | Insecticidal Activities, Injection [7] | Insecticidal Activities, Feeding [8] | other results
O=C1NC(=O)c2ccccc21 [PM, phthalimide] | 0.05 ± 0.007 e µg/mL | 0.17 ± 0.01 µg·days/mL | 0.04 ± 0.003 f µg/mL | highly potent | 0.40 ± 0.05f ng/larva | 0.20 ± 0.02 f ng/larva | 0.1 ± 0.01 f µg/mL | 22.11 ± 2.69 d µg/larva | 2150.66 ± 50.07 f µg/mL | Inhibitory activity against hemocyte PLA2 (in words) ([1]; S. exigua hemocyte PLA2, extracts, fractions or synthetic compounds): most potent; Inhibition of phagocytosis (in words) ([4]; S. exigua hemocytes): highly potent; Inhibition of nodule formation (in words) ([5]; S. exigua L5 larvae, E. coli challenge): high potency; Concentration inducing cytotoxicity [6]: less than 1 µg/mL; Killing of larvae after injection (in words) ([7]; individually injected to S. exigua larvae): most potent; Feeding (oral) toxicity (in words) ([8]; leaf-dipping method): most potent; Effect on X. hominickii pathogenicity / insecticidal activity [9]: significantly (p < 0.05) increased; Effect on B. thuringiensis insecticidal activity [10]: significantly (p < 0.05) increased; Acute mammalian toxicity LD50 ([11]; oral administration): > 5000 mg/kg
N#Cc1ccc(C(=O)O)cc1 [4-cyanobenzoic acid] | – | – | – | – | – | – | – | – | – | IC50 ([12]; diphenolase activity of mushroom tyrosinase, read-out: IC50 for diphenolase): 1.4 mM; IC50 ([12]; monophenolase activity of mushroom tyrosinase, read-out: IC50 for monophenolase): 2.45 mM
CCCCCCCCOC(=O)c1ccc(C(=O)OCCCCCCCC)cc1 [DOTP, dioctyl terephthalate] | 0.16 ± 0.006 cd µg/mL | 0.56 ± 0.05 c µg/mL | 0.06 ± 0.005 e µg/mL | highly potent | 8.70 ± 0.89 b ng/larva | 1.10 ± 0.07 b ng/larva | 0.50 ± 0.01 c µg/mL | 38.89 ± 3.21 b µg/larva | 3220.45 ± 90.91 b µg/mL | Toxicity to mammals (in words) [11]: relatively nontoxic
CCCCC(CC)COC(=O)c1ccccc1C(=O)OCC(CC)CCCC (stereo not drawn) [BEP, bis(2-ethylhexyl) phthalate] | 0.17 ± 0.01 cd ^2 µg/mL | 0.07 ± 0.01 ef µg/mL | 0.09 ± 0.01 µg·days/mL | – | 1.50 ± 0.22 d ^2 ng/larva | 1.0 ± 0.11 c ng/larva | 0.30 ± 0.01 d ^3 µg/mL | 34.88 ± 2.08 bc µg/larva | 2679.58 ± 60.58 µg·days/mL | Potency for inhibiting sPLA2 (in words) ([2]; based on IC50 values): highly potent; Acute toxicity, oral ([13]; oral administration): 30 g/kg; Acute toxicity, dermal ([14]; dermal application): 24 g/kg
CCCCNCCCC [DBA, dibutylamine] | 0.18 ± 0.02 c µg/mL | 0.11 ± 0.02 de µg/mL | 0.19 ± 0.02 c µg/mL | – | 5.0 ± 0.58 c ng/larva | 0.71 ± 0.05 d ng/larva | 0.80 ± 0.03 b µg/mL | 38.77 ± 3.26 b µg/larva | 2969.46 ± 50.56 c µg/mL | Acute oral toxicity (LD50) [13, 15]: 1.89 g/kg; Acute dermal toxicity (LD50) [14, 15]: 7.68 g/kg
